According to patent US20260297065A1, “AROMATIC SUBSTITUENT-CONTAINING (HETERO) ARYL-IMIDAZOLE COMPOUND, AND PREPARATION METHOD THEREFOR AND USE THEREOF” (OPEN SOURCE THERAPEUTICS, priority 2022, published 2026):
pIC50: −log10 of the molar value. Like-named read-outs stand apart in the source and are kept apart here.

Key:
[1] = target: T1, soluble epoxide hydrolase (sEH) (Homo sapiens, UniProt P34913); assay: in vitro biochemical activity test, sEH enzyme inhibition with EET substrate (LC-MS); settings: 90 min pre-incubation at room temperature, 60 min reaction
T1 sequence (P34913 1-555): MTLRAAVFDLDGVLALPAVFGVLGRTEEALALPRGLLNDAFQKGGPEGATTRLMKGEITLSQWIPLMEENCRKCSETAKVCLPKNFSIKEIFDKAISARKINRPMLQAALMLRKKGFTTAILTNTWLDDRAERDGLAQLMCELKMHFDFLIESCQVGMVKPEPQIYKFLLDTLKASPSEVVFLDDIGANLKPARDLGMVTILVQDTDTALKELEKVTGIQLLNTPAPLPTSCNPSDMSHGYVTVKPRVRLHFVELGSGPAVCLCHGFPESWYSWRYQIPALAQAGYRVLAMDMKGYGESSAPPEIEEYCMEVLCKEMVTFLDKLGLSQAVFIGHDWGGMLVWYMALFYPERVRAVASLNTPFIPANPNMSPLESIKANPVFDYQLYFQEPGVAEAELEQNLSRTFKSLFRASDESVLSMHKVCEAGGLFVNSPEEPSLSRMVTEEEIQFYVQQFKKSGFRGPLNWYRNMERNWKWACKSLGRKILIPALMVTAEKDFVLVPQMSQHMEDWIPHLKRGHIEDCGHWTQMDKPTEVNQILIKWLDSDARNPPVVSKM

[2] = in vivo pharmacokinetics in male ICR mice, IV and PO; set-up: species or system mouse (male ICR mice); settings: for clearance / half-life / AUC: mouse plasma; for clearance: read-out: intravenous injection administration (IV) C1; for AUC: read-out: Oral administration by gavage (PO) AUC; for bioavailability: plasma, mouse, PO 2 mpk, IV 1 mpk
Excerpt: This example relates to the evaluation of the pharmacokinetic properties of (hetero)aryl imidazole compounds containing an aromatic substituent. Specifically, this experiment evaluated the in vivo pharmacokinetic properties of some of the (hetero)aryl imidazole compounds with an aromatic substituent synthesized in Example 1 in mice under intravenous (IV) and oral (PO) administration.
The animals used in this experiment were male ICR mice, which were obtained from Beijing Weitonglihua Experimental Animal Technology Co., Ltd. IV/PO administration was performed with a single drug or a combination of drugs (Cassette, no more than five drugs), the solvent was 5% DMSO+10% Solutol+85% Saline, the compound concentration was 0.2 mg/mL, and the IV/PO administration volume was 5/10 mL/kg, respectively. The animals in the oral administration group were fasted overnight before administration and fed 4 hours after administration. After administration, blood was collected from the cheek at the set time of the experiment. About 50 μL was collected for each sample and anticoagulated with sodium heparin. After collection, the blood was placed on wet ice and centrifuged within 1 hour to separate the plasma (6000 rpm, 3 minutes, 2-8° C.). Plasma samples were stored at −80° C. before analysis. The plasma samples were diluted and analyzed by LC-MS/MS to determine the blood drug concentration data in the samples at different time points, and Phoenix WinNonlin 8.2.0 was used to calculate the pharmacokinetic parameters.

[3] = 1 mg/kg, IV, 1 mpk, read-out: intravenous injection administration (IV) T1/2 (converted)
[4] = 2 mg/kg, PO, 2 mpk, read-out: Oral administration by gavage (PO) T1/2 (converted)

| Compound | pIC50 [1] | clearance ([2]; 1 mg/kg, IV, 1 mpk) [mL/min/kg] | half-life [2, 3] [h] | AUC ([2]; 2 mg/kg, PO, 2 mpk) [ng·h/mL] | half-life [2, 4] [h] | bioavailability ([2]; 2 mg/kg) [%] |
| --- | --- | --- | --- | --- | --- | --- |
| Cc1nc(N)ncc1-c1cc2nc(-c3ccc(C(F)(F)F)cc3)[nH]c2c(F)c1F [Compound 8, 5-(4,5-difluoro-2-(4-(trifluoro-methyl)phenyl)-1H-benzo[d]imidazol-6-yl)-4-methylpyr-imidine-2-amine] | 10.19 | 1.3 | 5.9 | 19600 | 6.4 | 76 |
| Nc1cc(Cl)c(-c2cc3[nH]c(-c4ccc(C(F)(F)F)cc4)nc3cc2F)cn1 [Compound 61, 2-(4-(trifluoromethyl)phenyl)-6-(6-amino-4-chloropyridin-3-yl)-5-fluoro-1H-benzo[d] imidazole] |  | 1 | 8.5 | 26100 | 10.2 | 83 |
